Test results: patent US12384769B2, “Heteroaryl-substituted aminoalkyl azole compounds as pesticides” (Elanco Animal Health GmbH, priority 2019, dated 2025)

Legend:
Assay type in all cases: in vivo
Boophilus microplus = Boophilus microplus injection test (BOOPMI Injection); details: Rhipicephalus microplus, 168 h, injection into adult engorged female ticks, egg deposition after 7 days, read-out: activity (efficacy, infertile eggs)
In short: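 Adult engorged female ticks (5 per group) injected into the abdomen with 1 μL compound in DMSO, then held in a climate chamber. Fertile egg deposition scored after 7 days, with unclear eggs kept until hatching (~42 days). Efficacy 100% = all eggs infertile, 0% = all fertile.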

Ctenocephalides felis = Ctenocephalides felis in-vitro contact test, adult cat flea; details: 5 μg/cm^2 (=500 g/ha), after 48 hours, read-out: activity (efficacy, fleas dead or moribund)
In short: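 Acetone solutions coated onto inner walls of glass tubes; 900 ppm gives 5 μg/cm^2. After drying, 5-10 adult Ctenocephalides felis per tube held 48 h at room temperature. Fleas then placed on 45-50° C. plate for up to 5 min; those unable to climb away scored dead or moribund, efficacy as % dead/moribund.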

Diabrotica balteata = Diabrotica balteata spray test; details: 168 h, 500 g/ha (=160 μg/well), wheat seeds, after 7 days, read-out: activity (efficacy, seedlings grown)
In short: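 Efficacy was read 7 days after infesting each unit with 10–20 banded cucumber beetle larvae, as % of seedlings growing like untreated, uninfested controls. Before infestation, wheat seeds germinated 1 day on agar (5 per well) were sprayed with the active ingredient. The active was formulated in acetone/DMF and diluted in water containing emulsifier.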

C[C@H](Nc1nc2cc(C(F)(F)F)c(Cl)cc2o1)c1ncnn1-c1ncccn1 [Example I-001, 6-chloro-N-{(1S)-1-[1-(pyrimidin-2-yl)-1H-1,2,4-triazol-5-yl]ethyl}-5-(trifluoromethyl)-1,3-benzoxazol-2-amine]
100%: pest or weed control at 0.004 mg (Boophilus microplus; 4 μg/animal) | pest or weed control at 0.02 mg (Boophilus microplus; 20 μg/animal) | pest or weed control at 5 µg/cm2, 5 µg/cm2 (Ctenocephalides felis) | pest or weed control at 160 µg/disc, 500 g/ha (Diabrotica balteata)
